Reference: patent US7053082B1, “2,3-benzodiazepine derivatives” (priority 1999, dated 2006)

What was measured:
[1] = Duration of action in rats as assessed from the decrease in body core temperature; assay type: in vivo; conditions: male Wistar rats, i.p.; for PE, Δ ° C. (peak effect, maximum decrease in body temperature): radiotelemetry core body temperature, versus last value prior to treatment; for D, hours (duration of action): time from treatment to return of body temperature to the control level
Protocol: At least one week prior to treatments six male Wistar rats were anaesthetised with pentobarbital-Na (60 mg/kg, i.p.; Nembutal, Phylaxia-Sanofi, Budapest). Using sterile surgical procedures TL11M2-C50-PXT or TA10TA-F40 type radiotelemetry transmitters (Data Sciences International, St. Paul, Minn., USA) permitting continuous monitoring of core body temperature were implanted into the peritoneal cavity of the animals. After surgery the rats were treated with an antibiotic (1 ml/kg b.w. i.m. Tardomyocel, Bayer A G, Leverkusen, Germany). The animals were housed individually in type 2 plastic rat cages with free access to food and tap water. The compounds were dissolved in 5 M hydrochloric acid solution and distilled water (5%/95% v/v) then the pH of the solution was adjusted to 3 using 1 M sodium hydroxide solution. The compounds were administered intraperitoneally in a volume of 10 ml/kg.
Radio signals emitted by the transmitters were detected by RLA1000 type receivers placed under each animal's cage. Data were collected and saved by a Dataquest IV computerised data acquisition system. The computer was set to sample body temperature for 10 seconds in every second minute. Mean values for 30 min periods over the whole day were calculated running the “Sort Utility” of the Dataquest IV. […] The upper and lower limits of the evaluating routine were set to exclude biologically improbable values. Individual body temperature curves were averaged for the six animals.
Peak effect (PE) was measured as the maximum decrease in body temperature in comparison to the last value prior to treatment. Using mean values, duration of action (D) was measured as the time interval from treatment to return of body temperature to the control level.

[2] = tested on: MgCl2-induced global cerebral ischemia in mice; assay: Neuroprotective effect in MgCl2-induced global cerebral ischemia in mice; assay type: in vivo; conditions: dose that prolonged survival time by 50%; i.p. 30 min before i.v. saturated MgCl2 (5 ml/kg); male NMRI mice
Protocol: Male NMRI mice weighing 20–25 g were randomly allocated to treatment groups of 10 animals/group. The compounds were dissolved in 5 M hydrochloric acid solution and distilled water (5%/95% v/v) then the pH of the solution was adjusted to 3 using 1 M sodium hydroxide solution. The compounds were administered intraperitoneally in a volume of 10 ml/kg. Each compound was tested at four increasing dose levels and a separate group of animals was treated with the vehicle. Thirty min after treatment all mice received an intravenous bolus injection of saturated MgCl2 solution (5 ml/kg) that caused an immediate cardiac arrest and complete cerebral ischemia. Increases in survival time (interval between the injection of MgCl2 and the last observable gasp) were used as a measure of neuroprotective effect as described by Berga et al.. Percentage changes in survival time were calculated in comparison to that measured in the vehicle treated group. PD50 (the dose that prolonged survival by 50%) was calculated by linear regression analysis using percentage changes in survival time.

| melting point [°C] | SMILES | also measured |
| --- | --- | --- |
| 253 to 255 | CC(=O)N1N=C(c2ccc([N+](=O)[O-])c(C)c2)c2cc3c(cc2CC1(C)C#N)OCO3 (racemic) | – |
| 191 to 193 | CCC(=O)N1N=C(c2ccc([N+](=O)[O-])c(C)c2)c2cc3c(cc2CC1(C)C#N)OCO3 (racemic) | – |
| – | CNC(=O)N1N=C(c2ccc(N)c(C)c2)c2cc3c(cc2CC1C)OCO3 (racemic) [Example 31, (±)-5-(4-amino-3-methyl-phenyl)-7,8-dihydro-8-methyl-7-(N-methyl-carbamoyl)-9H-1,3-dioxolo[4.5-h][2.3]benzodiazepine] | PE, Δ ° C. (peak effect, maximum decrease in body temperature) [1]: −1.46 °C; D, hours (duration of action) [1]: 20 h |
| 252 to 255 | Cc1cc(C2=NN=C(C#N)Cc3cc4c(cc32)OCO4)ccc1N | – |
| 148 to 151 | Cc1cc(C2=NNC(C)(C#N)Cc3cc4c(cc32)OCO4)ccc1[N+](=O)[O-] (racemic) | – |
| 157 to 161 | CC(=O)N1N=C(c2ccc([N+](=O)[O-])c(C)c2)c2cc3c(cc2CC1C(N)=O)OCO3 (racemic) | – |
| 260 to 264 | Cc1cc(C2=NN=C(C=NNC(N)=O)Cc3cc4c(cc32)OCO4)ccc1[N+](=O)[O-] | – |
| 185 to 186 | Cc1cc(C2=NN=C(C(=O)O)Cc3cc4c(cc32)OCO4)ccc1[N+](=O)[O-] | – |
| – | CC(=O)N1N=C(c2ccc(N)c(C)c2)c2cc3c(cc2CC1(C)C#N)OCO3 (racemic) [Example 38, (±)-7-acetyl-5-(4-amino-3-methyl-phenyl)-8-cyano-7,8-dihydro-8-methyl-9H-1,3-dioxolo[4.5-h][2.3]benzodiazepine] | PD50, mg/kg i.p. [2]: 11.2 mg/kg; PE, Δ ° C. (peak effect, maximum decrease in body temperature) [1]: −1.34 °C; D, hours (duration of action) [1]: 9 h |
| 178 to 181 | CC(=O)N1N=C(c2ccc([N+](=O)[O-])c(C)c2)c2cc3c(cc2CC1C)OCO3 (racemic) | – |
| 222 to 223 | CC(=O)N1N=C(c2ccc(N)c(C)c2)c2cc3c(cc2C=C1C)OCO3 | – |
| 179 to 181 | Cc1cc(C2=NN(C(=O)NC3CC3)C(C)Cc3cc4c(cc32)OCO4)ccc1N (racemic) | – |
| 172 to 175 | CCC(=O)N1N=C(c2ccc([N+](=O)[O-])c(C)c2)c2cc3c(cc2CC1C)OCO3 (racemic) | – |
| 189 to 194 | CC1=NN=C(c2ccc([N+](=O)[O-])c(C)c2)c2cc3c(cc2C1)OCO3 | – |
| 188 to 191 | Cc1cc(C2=NN=C(C=O)Cc3cc4c(cc32)OCO4)ccc1[N+](=O)[O-] | – |
| 198 to 202 | CC1=Cc2cc3c(cc2C(c2ccc([N+](=O)[O-])c(C)c2)=NN1C(=O)NC1CC1)OCO3 | – |
| – | CONC(=O)N1N=C(c2ccc(N)c(C)c2)c2cc3c(cc2CC1C)OCO3 (racemic) [Example 30, (±)-5-(4-amino-3-methyl-phenyl)-7,8-dihydro-8-methyl-7-(N-methozy-carbamoyl)-9H-1,3-dioxolo[4,5-h][2,3]benzodiazepine] | PD50, mg/kg i.p. [2]: 14.9 mg/kg |

| SMILES | melting point [°C] | also measured |
| --- | --- | --- |
| CC(=O)N1N=C(c2ccc(N)c(C)c2)c2cc3c(cc2CC1C)OCO3 (racemic) [Example 27, (±)-7-acetyl-5-(4-amino-3-methyl-phenyl)-7,8-dihydro-8-methyl-9H-1,3-dioxolo[4,5-h][2,3]benzodiazepine] | 121 to 123 | PD50, mg/kg i.p. [2]: 5.4 mg/kg; PE, Δ ° C. (peak effect, maximum decrease in body temperature) [1]: −1.45 °C; D, hours (duration of action) [1]: >20 h |
